Data from US11981658B2, “Substituted aminopyridine compounds as EGFR inhibitors” (YUHAN CORPORATION, priority 2021, dated 2024).
Where two headings read alike, the source gives them in different places.

Experiments:
EGFR Del19/T790M/C797S = EGFR Del19/T790M/C797S (Homo sapiens, UniProt P00533, C797S/DEL746-750/T790M); assay: Biochemical EGFR kinase inhibition assay (Lance Ultra TR-FRET), triple mutant del19/T790M/C797S
How it was run: (§1)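 In this biochemical assay, phosphorylation after a one-hour room-temperature reaction was detected with europium-labelled anti-phosphopeptide antibody at 2 nM final concentration.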

EGFR wildtype (WT) = EGFR wildtype (WT) (Homo sapiens, UniProt P00533); assay: Biochemical EGFR kinase inhibition assay (Lance Ultra TR-FRET), wildtype
How it was run: as §1

EGFR Del19/C797S = EGFR Del19/C797S (Homo sapiens, UniProt P00533, C797S/DEL746-750); assay: Biochemical EGFR kinase inhibition assay (Lance Ultra TR-FRET), double mutant del19/C797S
How it was run: as §1

EGFR L858R/T790M/C797S = EGFR L858R/T790M/C797S (Homo sapiens, UniProt P00533, C797S/L858R/T790M); assay: Biochemical EGFR kinase inhibition assay (Lance Ultra TR-FRET), triple mutant L858R/T790M/C797S
How it was run: as §1

EGFR L858R/C797S = EGFR L858R/C797S (Homo sapiens, UniProt P00533, C797S/L858R); assay: Biochemical EGFR kinase inhibition assay (Lance Ultra TR-FRET), double mutant L858R/C797S
How it was run: as §1

[1] = ATP at Km, read-out: IC50 Del19/T790M/C797S (nM), Km ATP
[2] = IC50 Del19/T790M/C797S (nM), 100 μM ATP
[3] = ATP at Km, read-out: IC50 Del19/C797S (nM), Km ATP
[4] = IC50 Del19/C797S (nM), 100 μM ATP
[5] = ATP at Km, read-out: IC50 L858R/T790M/C797S (nM), Km ATP
[6] = IC50 L858R/T790M/C797S (nM), 100 μM ATP
[7] = ATP at Km, read-out: IC50 L858R/C797S (nM), Km ATP
[8] = IC50 L858R/C797S (nM), 100 μM ATP
[9] = ATP at Km, read-out: IC50 WT (nM), Km ATP

Sequence of EGFR Del19/T790M/C797S (P00533 with tags, fused parts or gaps DEL746-750/T790M/C797S): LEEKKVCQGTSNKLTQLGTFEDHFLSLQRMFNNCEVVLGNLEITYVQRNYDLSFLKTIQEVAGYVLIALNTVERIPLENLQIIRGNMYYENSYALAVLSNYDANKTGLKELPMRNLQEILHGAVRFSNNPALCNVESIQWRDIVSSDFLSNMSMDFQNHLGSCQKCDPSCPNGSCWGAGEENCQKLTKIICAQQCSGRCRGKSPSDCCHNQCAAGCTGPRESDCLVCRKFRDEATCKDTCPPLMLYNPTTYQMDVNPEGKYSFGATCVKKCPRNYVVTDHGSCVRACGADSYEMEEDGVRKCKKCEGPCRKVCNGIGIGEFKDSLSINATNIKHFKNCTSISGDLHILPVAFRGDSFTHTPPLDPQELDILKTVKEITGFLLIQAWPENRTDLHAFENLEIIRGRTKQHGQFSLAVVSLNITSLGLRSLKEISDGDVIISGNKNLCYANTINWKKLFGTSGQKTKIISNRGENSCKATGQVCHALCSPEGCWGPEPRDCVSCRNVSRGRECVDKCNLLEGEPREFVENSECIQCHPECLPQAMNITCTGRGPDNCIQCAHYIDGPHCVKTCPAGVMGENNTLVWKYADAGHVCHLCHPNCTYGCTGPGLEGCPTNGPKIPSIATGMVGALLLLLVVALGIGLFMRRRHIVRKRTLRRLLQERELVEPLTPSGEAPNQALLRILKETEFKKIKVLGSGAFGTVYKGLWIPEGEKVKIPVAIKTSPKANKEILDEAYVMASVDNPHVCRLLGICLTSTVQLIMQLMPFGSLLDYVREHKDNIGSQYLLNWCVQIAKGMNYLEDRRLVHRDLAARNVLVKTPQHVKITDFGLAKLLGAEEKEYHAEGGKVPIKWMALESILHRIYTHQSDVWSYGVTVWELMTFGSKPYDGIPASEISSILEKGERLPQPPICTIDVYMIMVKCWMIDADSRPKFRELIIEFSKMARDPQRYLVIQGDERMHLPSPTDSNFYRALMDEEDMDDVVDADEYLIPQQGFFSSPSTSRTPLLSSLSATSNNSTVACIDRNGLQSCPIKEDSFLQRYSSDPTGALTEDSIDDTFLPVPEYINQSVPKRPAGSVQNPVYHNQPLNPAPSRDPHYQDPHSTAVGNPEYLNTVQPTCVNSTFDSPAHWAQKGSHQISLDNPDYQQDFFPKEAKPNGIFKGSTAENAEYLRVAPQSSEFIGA
Sequence of EGFR Del19/C797S (P00533 with tags, fused parts or gaps DEL746-750/C797S): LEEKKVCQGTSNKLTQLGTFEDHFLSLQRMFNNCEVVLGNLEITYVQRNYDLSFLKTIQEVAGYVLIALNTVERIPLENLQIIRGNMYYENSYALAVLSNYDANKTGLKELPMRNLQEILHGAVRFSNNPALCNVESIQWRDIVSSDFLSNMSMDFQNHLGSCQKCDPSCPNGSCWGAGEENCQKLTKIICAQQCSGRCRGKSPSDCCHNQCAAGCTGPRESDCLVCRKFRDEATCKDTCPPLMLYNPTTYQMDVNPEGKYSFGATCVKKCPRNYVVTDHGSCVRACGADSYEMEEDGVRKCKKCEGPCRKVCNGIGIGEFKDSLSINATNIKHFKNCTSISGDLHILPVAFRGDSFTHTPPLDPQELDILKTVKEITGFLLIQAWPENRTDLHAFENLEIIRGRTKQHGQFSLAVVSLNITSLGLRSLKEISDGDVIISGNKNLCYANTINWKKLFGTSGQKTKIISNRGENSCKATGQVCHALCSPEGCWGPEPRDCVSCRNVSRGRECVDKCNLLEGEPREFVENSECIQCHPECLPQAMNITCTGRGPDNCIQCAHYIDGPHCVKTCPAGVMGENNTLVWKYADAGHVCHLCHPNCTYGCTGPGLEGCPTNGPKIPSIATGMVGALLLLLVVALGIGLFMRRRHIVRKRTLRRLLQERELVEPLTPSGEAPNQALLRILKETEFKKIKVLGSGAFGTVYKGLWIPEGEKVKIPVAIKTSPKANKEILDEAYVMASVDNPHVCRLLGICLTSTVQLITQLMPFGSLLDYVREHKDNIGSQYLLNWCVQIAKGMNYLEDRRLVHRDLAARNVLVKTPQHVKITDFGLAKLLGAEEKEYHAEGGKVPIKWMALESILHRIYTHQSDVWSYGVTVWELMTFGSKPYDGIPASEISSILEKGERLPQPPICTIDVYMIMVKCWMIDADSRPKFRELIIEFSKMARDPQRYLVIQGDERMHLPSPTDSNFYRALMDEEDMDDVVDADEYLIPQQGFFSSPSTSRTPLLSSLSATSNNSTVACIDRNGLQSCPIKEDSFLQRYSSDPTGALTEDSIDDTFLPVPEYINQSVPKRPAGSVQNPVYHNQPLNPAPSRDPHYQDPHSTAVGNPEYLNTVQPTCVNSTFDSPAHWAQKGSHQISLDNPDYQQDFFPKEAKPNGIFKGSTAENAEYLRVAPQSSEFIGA
Sequence of EGFR L858R/C797S (P00533 25-1210 C797S/L858R): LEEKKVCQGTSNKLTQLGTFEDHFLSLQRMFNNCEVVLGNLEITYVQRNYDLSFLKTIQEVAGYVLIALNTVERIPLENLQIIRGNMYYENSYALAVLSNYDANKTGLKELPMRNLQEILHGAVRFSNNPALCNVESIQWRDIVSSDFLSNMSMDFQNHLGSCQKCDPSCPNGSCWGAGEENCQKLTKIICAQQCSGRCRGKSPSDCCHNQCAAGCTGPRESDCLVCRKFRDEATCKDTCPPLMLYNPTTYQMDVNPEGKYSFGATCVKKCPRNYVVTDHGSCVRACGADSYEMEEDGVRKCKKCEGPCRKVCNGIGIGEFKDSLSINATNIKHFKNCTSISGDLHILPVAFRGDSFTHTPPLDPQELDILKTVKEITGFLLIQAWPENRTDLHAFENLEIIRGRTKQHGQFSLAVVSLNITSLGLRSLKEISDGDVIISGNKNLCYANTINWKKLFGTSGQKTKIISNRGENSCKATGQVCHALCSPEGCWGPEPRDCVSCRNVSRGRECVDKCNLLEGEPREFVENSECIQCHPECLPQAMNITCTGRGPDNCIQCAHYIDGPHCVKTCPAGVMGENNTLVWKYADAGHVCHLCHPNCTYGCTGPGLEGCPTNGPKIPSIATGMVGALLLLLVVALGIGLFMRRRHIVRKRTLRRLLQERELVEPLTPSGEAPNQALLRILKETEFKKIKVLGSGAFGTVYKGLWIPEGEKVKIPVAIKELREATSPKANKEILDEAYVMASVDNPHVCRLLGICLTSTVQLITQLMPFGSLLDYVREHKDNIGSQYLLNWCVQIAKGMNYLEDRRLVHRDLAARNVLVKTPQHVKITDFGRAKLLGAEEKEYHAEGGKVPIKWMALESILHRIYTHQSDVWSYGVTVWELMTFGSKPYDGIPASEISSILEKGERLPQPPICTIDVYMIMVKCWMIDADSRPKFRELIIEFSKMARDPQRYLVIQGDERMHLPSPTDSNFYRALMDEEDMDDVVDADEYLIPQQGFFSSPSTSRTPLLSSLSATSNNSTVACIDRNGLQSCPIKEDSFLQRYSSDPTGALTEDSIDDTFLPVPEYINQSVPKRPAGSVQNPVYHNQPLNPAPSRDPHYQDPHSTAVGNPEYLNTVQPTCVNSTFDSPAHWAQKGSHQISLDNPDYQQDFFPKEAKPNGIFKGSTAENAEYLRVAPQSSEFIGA
Sequence of EGFR wildtype (WT) (P00533 25-1210): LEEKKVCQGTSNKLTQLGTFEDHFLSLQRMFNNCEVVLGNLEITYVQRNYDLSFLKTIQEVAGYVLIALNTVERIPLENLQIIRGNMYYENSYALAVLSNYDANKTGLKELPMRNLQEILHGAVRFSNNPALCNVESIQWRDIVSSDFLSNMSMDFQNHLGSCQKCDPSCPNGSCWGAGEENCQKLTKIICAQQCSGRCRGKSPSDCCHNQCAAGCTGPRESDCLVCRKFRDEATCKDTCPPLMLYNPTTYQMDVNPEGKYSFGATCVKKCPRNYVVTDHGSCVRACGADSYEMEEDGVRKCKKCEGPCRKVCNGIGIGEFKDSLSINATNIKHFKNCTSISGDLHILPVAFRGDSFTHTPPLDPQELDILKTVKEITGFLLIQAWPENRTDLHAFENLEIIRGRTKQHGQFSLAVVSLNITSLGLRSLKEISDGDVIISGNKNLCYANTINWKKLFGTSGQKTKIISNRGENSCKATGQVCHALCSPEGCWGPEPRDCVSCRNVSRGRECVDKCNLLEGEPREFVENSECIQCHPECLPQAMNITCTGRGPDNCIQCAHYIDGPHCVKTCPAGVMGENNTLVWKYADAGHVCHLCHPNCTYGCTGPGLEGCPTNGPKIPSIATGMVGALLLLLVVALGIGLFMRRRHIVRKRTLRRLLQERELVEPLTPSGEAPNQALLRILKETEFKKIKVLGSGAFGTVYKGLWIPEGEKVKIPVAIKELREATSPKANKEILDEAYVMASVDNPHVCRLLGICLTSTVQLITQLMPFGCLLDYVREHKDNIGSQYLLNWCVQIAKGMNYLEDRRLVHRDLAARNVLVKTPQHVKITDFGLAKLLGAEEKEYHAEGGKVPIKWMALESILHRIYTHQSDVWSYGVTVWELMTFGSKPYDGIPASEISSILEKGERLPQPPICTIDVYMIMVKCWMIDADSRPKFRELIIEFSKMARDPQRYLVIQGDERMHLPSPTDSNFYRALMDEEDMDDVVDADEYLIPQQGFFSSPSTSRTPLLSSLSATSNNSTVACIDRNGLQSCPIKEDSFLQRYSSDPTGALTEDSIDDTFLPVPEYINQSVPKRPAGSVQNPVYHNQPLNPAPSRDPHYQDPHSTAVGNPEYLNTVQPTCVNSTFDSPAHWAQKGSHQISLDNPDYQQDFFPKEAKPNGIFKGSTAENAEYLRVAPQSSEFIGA

Structure (SMILES) | IC50 (EGFR Del19/T790M/C797S; [1]) [nM] | IC50 (EGFR Del19/T790M/C797S; [2]) [nM] | IC50 (EGFR wildtype (WT); IC50 WT (nM), 100 μM ATP) [nM] | IC50 (EGFR Del19/C797S; [3]) [nM] | IC50 (EGFR Del19/C797S; [4]) [nM] | IC50 (EGFR L858R/T790M/C797S; [5]) [nM] | IC50 (EGFR L858R/T790M/C797S; [6]) [nM] | IC50 (EGFR L858R/C797S; [7]) [nM] | IC50 (EGFR L858R/C797S; [8]) [nM] | IC50 (EGFR wildtype (WT); [9]) [nM]
CC1(CO)CCN(c2cc(Nc3ccnc(-c4cnn(S(=O)(=O)C5CC5)c4)n3)ncc2C#Cc2cnn(C(F)F)c2)CC1 [Example 305, (1-(2-((2-(1-(Cyclopropylsulfonyl)-1H-pyrazol-4-yl)pyrimidin-4-yl)amino)-5-((1-(difluoromethyl)-1H-pyrazol-4-yl)ethynyl)pyridin-4-yl)-4-methylpiperidin-4-yl)methanol] | 1.3 | 1 | 1520 | 0.6 | 2.4 | 0.5 | 0.9 | 0.8 | 5.4 | 
O=S(=O)(C1CC1)n1cc(-c2nccc(Nc3cc(NC[C@H]4CC[C@@H](O)C4)c(C#Cc4cnn(C(F)F)c4)cn3)n2)cn1 [Example 306, (1R,3S)-3-(((2-((2-(1-(Cyclopropylsulfonyl)-1H-pyrazol-4-yl)pyrimidin-4-yl)amino)-5-((1-(difluoromethyl)-1H-pyrazol-4-yl)ethynyl)pyridin-4-yl)amino)methyl)cyclopentan-1-ol] | 1 | 1.6 | > 10000 | 3.4 | 4.6 | 0.4 | 3.9 | 4.3 | 6.8 | 14.6
O=S(=O)(C1CC1)n1cc(-c2nccc(Nc3cc(NC[C@H]4CC[C@H](O)CC4)c(C#Cc4cnn(C(F)F)c4)cn3)n2)cn1 [Example 307, (1r,4r)-4-(((2-((2-(1-(Cyclopropylsulfonyl)-1H-pyrazol-4-yl)pyrimidin-4-yl)amino)-5-((1-(difluoromethyl)-1H-pyrazol-4-yl)ethynyl)pyridin-4-yl)amino)methyl)cyclohexan-1-ol] | 14.7 | 29.6 | > 10000 | 17.2 | 37.3 | 0.3 | 35.1 | 21.3 | 44.2 | 87.7
O=S(=O)(C1CC1)n1cc(-c2nccc(Nc3cc(N[C@H]4CC[C@@H](CO)CC4)c(C#Cc4cnn(C(F)F)c4)cn3)n2)cn1 [Example 308, ((1s,4s)-4-((2-((2-(1-(Cyclopropylsulfonyl)-1H-pyrazol-4-yl)pyrimidin-4-yl)amino)-5-((1-(difluoromethyl)-1H-pyrazol-4-yl)ethynyl)pyridin-4-yl)amino)cyclohexyl)methanol] | 4.8 | 3.5 | > 10000 | 1.6 | 2.8 | 3.2 | 2.3 | 3.7 | 75 | 39.4
CN(C)C[C@H]1CC[C@@H](Nc2cc(Nc3ccnc(-c4cnn(S(=O)(=O)C5CC5)c4)n3)ncc2C#Cc2cnn(CC3CC3)c2)CC1 [Example 309, 5-((1-(Cyclopropylmethyl)-1H-pyrazol-4-yl)ethynyl)-N^2-(2-(1-(cyclopropylsulfonyl)-1H-pyrazol-4-yl)pyrimidin-4-yl)-N^4-((1s,4s)-4-((dimethylamino)methyl)cyclohexyl)pyridine-2,4-diamine] |  | 1 | 7630 | 2.4 | 3.1 |  | 1.1 | 1 | 43.8 | 24.3
CN(C)C[C@H]1CC[C@@H](Nc2cc(Nc3ccnc(-c4cnn(S(=O)(=O)C5CC5)c4)n3)ncc2C#Cc2cnn(C(F)F)c2)CC1 [Example 310, N^2-(2-(1-(Cyclopropylsulfonyl)-1H-pyrazol-4-yl)pyrimidin-4-yl)-5-((1-(difluoromethyl)-1H-pyrazol-4-yl)ethynyl)-N^4-((1s,4s)-4-((dimethylamino)methyl)cyclohexyl)pyridine-2,4-diamine] |  | 0.8 | 8840 | 2.9 | 4.2 |  | 1.3 | 1.9 | 56.3 | 44
CN(C)C[C@H]1CC[C@@H](Nc2cc(Nc3ccnc(-c4cnn(S(=O)(=O)C5CC5)c4)n3)ncc2C#Cc2cnn(CC(F)F)c2)CC1 [Example 311, N^2-(2-(1-(Cyclopropylsulfonyl)-1H-pyrazol-4-yl)pyrimidin-4-yl)-5-((1-(2,2-difluoroethyl)-1H-pyrazol-4-yl)ethynyl)-N^4-((1s,4s)-4-((dimethylamino)methyl)cyclohexyl)pyridine-2,4-diamine] |  | 0.5 | 8550 | 1.6 | 1.8 |  | 0.7 | 0.7 | 26 | 17.5
